Assay results taken from patent US20240101544A1, “INHIBITORS OF QPCTL AND QPCT” (priority 2022, published 2024).

Key:
[1] = biological target: T1, QPCTL (Homo sapiens (Human), UniProt Q9NXS2); assay: Inhibition of Cellular QPCTL Activity - FACS flow cytometry, CC2C6 anti-CD47 staining of Ramos cells; assay type: cell-based; settings: Ramos human Burkitts Lymphoma cells, 72-96 hours, % CC2C6-positive cells
Protocol: Inhibition of Cellular QPCTL Activity—Fluorescence-Activated Cell Sorting (FACS) Flow Cytometry
The cells were incubated for 72-96 hours at 37° C. and 5% CO2. At the end of incubation period, cells were transferred to tubes and spun down at 1200 rpm for 5 minutes. […] After antibody staining, the cells were washed with FACS buffer then stained with SYTOX™ Blue dead cell stain at a dilution of 1:1000. Cells were analyzed on a BD FACS Melody and a positive staining gate on live cells was set using the 0.1% DMSO controls. […] Flow cytometry data were analyzed by FlowJo software and concentration-response-curves and IC50 values were generated using Collaborative Drug Discovery software.
Target sequence in this assay (Q9NXS2 whole entry): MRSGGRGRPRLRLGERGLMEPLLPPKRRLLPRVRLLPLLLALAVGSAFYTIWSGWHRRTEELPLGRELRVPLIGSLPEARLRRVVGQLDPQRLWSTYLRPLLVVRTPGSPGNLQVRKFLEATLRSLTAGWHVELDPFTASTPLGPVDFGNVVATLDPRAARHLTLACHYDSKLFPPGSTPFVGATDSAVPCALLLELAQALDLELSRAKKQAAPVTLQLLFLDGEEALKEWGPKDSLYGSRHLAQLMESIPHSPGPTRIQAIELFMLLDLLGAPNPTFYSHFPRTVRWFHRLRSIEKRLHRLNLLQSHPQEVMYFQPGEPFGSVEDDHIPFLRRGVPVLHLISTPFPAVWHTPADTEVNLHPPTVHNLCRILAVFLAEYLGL

[2] = biological target: T1, QPCTL; assay: QPCTL Enzymatic Activity Assay (coupled-enzyme fluorescent assay, H-Gln-AMC substrate); assay type: biochemical; settings: recombinant truncated human QPCTL 10-12 nM, 10 μM H-Gln-AMC; read-out: QPCTL Inhibition IC50
Target sequence in this assay (Q9NXS2 53-382): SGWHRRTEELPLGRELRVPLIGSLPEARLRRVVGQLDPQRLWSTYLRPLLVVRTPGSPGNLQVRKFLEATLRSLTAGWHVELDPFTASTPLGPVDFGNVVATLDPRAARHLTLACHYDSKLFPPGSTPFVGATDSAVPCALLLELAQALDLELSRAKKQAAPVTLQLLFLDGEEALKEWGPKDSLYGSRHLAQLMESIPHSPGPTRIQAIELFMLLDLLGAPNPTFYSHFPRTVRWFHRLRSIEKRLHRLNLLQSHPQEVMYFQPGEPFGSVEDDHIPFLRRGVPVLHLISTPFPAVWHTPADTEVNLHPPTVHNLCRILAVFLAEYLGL

[3] = biological target: T1, QPCTL; assay: Inhibition of Cellular QPCTL Activity - Imaging Assay, CC2C6 anti-CD47 staining of DLD-1 cells; assay type: cell-based; settings: 72 hours, CC2C6 anti-CD47 high-content imaging
Protocol: Inhibition of Cellular QPCTL Activity—Imaging Assay
The cells were incubated for 72 hours at 37° C. and 5% CO2. […] After primary antibody staining, the cells were fixed with 4% paraformaldehyde in the incubation buffer for 15 minutes at room temperature. […] Cells were analyzed on a ImageXpress Pico Automated Cell Imaging System (Molecular Devices) using 10× objective (3×3 fields).
Target sequence in this assay (Q9NXS2 whole entry): as the sequence (Q9NXS2 whole entry) above

[4] = biological target: QPCT (rhQPCT) (Homo sapiens (Human), UniProt Q16769); assay: QPCT Enzymatic Activity Assay (coupled-enzyme fluorescent assay, H-Gln-AMC substrate); assay type: biochemical; settings: rhQPCT 10-12 nM, 10 μM H-Gln-AMC; read-out: QPCT Inhibition IC50
QPCT (rhQPCT), sequence (Q16769 29-361): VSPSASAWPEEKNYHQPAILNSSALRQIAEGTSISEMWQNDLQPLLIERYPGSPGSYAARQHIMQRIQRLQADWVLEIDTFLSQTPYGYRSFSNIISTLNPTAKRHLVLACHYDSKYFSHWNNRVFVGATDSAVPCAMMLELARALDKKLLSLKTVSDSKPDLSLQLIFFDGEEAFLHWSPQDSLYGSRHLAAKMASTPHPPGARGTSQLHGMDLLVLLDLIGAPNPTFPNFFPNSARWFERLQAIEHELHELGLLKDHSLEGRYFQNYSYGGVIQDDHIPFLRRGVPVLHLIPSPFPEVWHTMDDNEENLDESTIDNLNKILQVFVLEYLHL
Summary of the method: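 Coupled assay: recombinant human QPCT converts H-Gln-AMC (10 μM final) to pyroglutamyl-AMC, 60 min at 37 °C, stopped by boiling; PGPEP-1 then releases AMC.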

Structure (SMILES) | IC50 [1] | IC50 [2] | IC50 [3] | IC50 [4]
Cn1cc(-c2ccc(-c3ccc(F)nc3)c(N3CCC(c4nncn4C)CC3)c2C#N)cn1 [Example 35, 3-(6-fluoropyridin-3-yl)-6-(1-methyl-1H-pyrazol-4-yl)-2-[4-(4-methyl-4H-1,2,4-triazol-3-yl)piperidin-1-yl]benzonitrile] | < 100 nM | < 100 nM | < 100 nM | < 100 nM
COc1ccncc1-c1ccc(OC)c(C#N)c1N1CCC(c2nncn2C)CC1 [Example 25, 6-methoxy-3-(4-methoxypyridin-3-yl)-2-[4-(4-methyl-4H-1,2,4-triazol-3-yl)piperidin-1-yl]benzonitrile] | 100 to 1000 nM | < 100 nM | 1000 to 10000 nM | < 100 nM

The next lines start with the values.

IC50 [1] | IC50 [2] | IC50 [3] | IC50 [4] | Structure (SMILES)
< 100 nM | < 100 nM | < 100 nM | < 100 nM | COc1ccc(-c2ccc(F)nc2)c(N2CCC(c3nncn3C)CC2)c1C#N [Example 24, 3-(6-fluoropyridin-3-yl)-6-methoxy-2-[4-(4-methyl-4H-1,2,4-triazol-3-yl)piperidin-1-yl]benzonitrile]
< 100 nM | < 100 nM | < 100 nM | < 100 nM | Cn1cnnc1C1CCN(c2c(C#N)ccc(F)c2-c2ccc(F)nc2)CC1 [Example 38, 4-fluoro-3-(6-fluoropyridin-3-yl)-2-[4-(4-methyl-4H-1,2,4-triazol-3-yl)piperidin-1-yl]benzonitrile]
1000 to 10000 nM | < 100 nM | 100 to 1000 nM | < 100 nM | Cn1cnnc1C1CCN(c2c(C#N)cccc2-c2cnc(=O)n(C)c2)CC1 [Example 34, 3-(1-methyl-2-oxo-1,2-dihydropyrimidin-5-yl)-2-[4-(4-methyl-4H-1,2,4-triazol-3-yl)piperidin-1-yl]benzonitrile]
